Data: patent US20230310428A1, “EGFR INHIBITOR AND PREPARATION METHOD AND USE THEREOF” (HONGYUN BIOTECH CO., LTD., priority 2020, published 2023)
Read-outs that look alike come from different tables or passages of the source.

Experiments:
Test in all cases: Growth inhibitory activity of compounds on BaF3 cell lines stably transfected with kinase (MTS, 48 h)
Type in all cases: cell-based
[1] = molecular target: T1, various mutants of kinase EGFR (BaF3 cell lines stably transfected with kinase) (Homo sapiens, UniProt P00533)
T1 construct: other: BaF3 cells stably transfected with EGFR Δ19Del; MTS, 48 h; other: BaF3 cell line stably transfected with EGFR Δ19Del
T1 sequence (P00533 with tags, fused parts or gaps DEL746-750): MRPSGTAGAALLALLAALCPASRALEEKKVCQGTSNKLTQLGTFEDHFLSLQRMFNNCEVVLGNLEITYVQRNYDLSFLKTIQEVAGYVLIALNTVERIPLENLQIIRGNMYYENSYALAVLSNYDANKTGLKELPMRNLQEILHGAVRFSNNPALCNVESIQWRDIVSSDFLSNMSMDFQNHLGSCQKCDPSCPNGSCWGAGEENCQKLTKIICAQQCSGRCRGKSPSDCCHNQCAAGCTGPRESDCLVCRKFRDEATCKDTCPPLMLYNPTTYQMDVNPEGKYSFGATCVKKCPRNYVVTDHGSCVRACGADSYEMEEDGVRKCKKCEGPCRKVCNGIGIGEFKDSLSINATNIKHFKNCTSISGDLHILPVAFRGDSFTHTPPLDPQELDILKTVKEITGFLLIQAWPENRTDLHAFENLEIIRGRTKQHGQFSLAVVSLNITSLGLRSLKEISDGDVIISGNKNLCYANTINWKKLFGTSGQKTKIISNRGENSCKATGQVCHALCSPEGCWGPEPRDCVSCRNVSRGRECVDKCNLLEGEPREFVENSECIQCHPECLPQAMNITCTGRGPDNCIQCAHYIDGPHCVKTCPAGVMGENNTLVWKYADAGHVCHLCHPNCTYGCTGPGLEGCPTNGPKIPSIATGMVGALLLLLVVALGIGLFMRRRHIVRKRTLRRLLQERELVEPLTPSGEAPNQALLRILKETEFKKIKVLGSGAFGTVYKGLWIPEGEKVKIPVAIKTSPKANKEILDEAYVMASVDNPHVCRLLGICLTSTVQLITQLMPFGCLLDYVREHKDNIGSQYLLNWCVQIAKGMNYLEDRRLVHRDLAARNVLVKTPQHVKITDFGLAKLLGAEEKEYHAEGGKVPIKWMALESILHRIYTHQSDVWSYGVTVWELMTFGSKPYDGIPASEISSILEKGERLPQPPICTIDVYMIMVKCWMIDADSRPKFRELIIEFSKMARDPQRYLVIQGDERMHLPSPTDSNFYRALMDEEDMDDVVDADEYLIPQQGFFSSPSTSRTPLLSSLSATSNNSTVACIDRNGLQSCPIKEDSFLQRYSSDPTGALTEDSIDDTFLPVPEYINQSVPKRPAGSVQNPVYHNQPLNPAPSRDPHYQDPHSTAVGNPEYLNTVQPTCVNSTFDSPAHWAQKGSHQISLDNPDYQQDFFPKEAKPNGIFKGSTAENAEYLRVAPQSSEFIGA
Procedure, shortened: (§1)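 First, cells were seeded and treated with an eight-point threefold dilution series starting at 10 µM (0.1% DMSO). After 48 h at 37 °C, MTS reagent was added for 1-4 h before absorbance at 490 nm. Inhibition rates gave the IC50.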

[2] = molecular target: T2, various mutants of kinase EGFR (BaF3 cell lines stably transfected with kinase) (Homo sapiens, UniProt P00533, C797S/L858R/T790M)
T2 construct: expressed in transfected cells; host or cells: BaF3
T2 sequence (P00533 25-1210 T790M/C797S/L858R): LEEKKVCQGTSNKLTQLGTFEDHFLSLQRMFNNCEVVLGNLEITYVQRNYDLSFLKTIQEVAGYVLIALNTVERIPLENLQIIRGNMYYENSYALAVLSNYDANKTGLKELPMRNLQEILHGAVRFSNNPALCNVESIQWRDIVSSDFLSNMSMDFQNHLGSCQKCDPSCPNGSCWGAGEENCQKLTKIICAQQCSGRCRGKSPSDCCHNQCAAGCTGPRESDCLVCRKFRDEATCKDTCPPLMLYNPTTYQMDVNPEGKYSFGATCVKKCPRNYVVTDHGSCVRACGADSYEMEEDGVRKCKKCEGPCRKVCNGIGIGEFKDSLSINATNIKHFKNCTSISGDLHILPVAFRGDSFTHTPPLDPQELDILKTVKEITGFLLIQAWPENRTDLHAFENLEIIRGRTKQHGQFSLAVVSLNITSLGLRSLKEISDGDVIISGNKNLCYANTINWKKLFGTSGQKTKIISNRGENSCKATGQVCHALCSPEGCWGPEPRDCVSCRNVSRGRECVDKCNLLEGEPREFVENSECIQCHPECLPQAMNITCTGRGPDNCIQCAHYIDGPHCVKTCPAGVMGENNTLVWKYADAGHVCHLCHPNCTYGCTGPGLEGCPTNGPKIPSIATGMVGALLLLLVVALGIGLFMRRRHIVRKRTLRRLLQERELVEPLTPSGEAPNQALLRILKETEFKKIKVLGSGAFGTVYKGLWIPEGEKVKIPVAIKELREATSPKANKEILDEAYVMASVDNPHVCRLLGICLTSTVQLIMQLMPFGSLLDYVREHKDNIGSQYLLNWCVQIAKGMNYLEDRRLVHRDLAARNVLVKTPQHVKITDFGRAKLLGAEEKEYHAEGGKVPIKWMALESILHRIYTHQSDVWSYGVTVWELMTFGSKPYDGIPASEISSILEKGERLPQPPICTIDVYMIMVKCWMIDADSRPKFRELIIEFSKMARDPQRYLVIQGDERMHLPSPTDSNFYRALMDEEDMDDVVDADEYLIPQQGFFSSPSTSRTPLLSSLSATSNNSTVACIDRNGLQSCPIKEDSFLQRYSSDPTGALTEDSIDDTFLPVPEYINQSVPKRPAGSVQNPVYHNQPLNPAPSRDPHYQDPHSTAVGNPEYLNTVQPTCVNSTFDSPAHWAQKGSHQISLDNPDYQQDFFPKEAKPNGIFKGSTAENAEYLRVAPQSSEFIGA
Procedure, shortened: as §1

[3] = molecular target: T3, various mutants of kinase EGFR (BaF3 cell lines stably transfected with kinase) (Homo sapiens, UniProt P00533, L858R)
T3 construct: expressed in transfected cells; host or cells: BaF3
Procedure, shortened: as §1

[4] = molecular target: T4, various mutants of kinase EGFR (BaF3 cell lines stably transfected with kinase) (Homo sapiens, UniProt P00533, L858R/T790M)
T4 construct: expressed in transfected cells; host or cells: BaF3
Procedure, shortened: as §1

[5] = molecular target: T5, various mutants of kinase EGFR (BaF3 cell lines stably transfected with kinase) (Homo sapiens, UniProt P00533, T790M/C797S, form not given)
T5 construct: other: BaF3 cells stably transfected with EGFR Δ19Del/T790M/C797S; MTS, 48; other: BaF3 cell line stably transfected with EGFR Δ19Del/T790M/C7
T5 sequence (P00533 with tags, fused parts or gaps DEL746-750/T790M/C797S, form open): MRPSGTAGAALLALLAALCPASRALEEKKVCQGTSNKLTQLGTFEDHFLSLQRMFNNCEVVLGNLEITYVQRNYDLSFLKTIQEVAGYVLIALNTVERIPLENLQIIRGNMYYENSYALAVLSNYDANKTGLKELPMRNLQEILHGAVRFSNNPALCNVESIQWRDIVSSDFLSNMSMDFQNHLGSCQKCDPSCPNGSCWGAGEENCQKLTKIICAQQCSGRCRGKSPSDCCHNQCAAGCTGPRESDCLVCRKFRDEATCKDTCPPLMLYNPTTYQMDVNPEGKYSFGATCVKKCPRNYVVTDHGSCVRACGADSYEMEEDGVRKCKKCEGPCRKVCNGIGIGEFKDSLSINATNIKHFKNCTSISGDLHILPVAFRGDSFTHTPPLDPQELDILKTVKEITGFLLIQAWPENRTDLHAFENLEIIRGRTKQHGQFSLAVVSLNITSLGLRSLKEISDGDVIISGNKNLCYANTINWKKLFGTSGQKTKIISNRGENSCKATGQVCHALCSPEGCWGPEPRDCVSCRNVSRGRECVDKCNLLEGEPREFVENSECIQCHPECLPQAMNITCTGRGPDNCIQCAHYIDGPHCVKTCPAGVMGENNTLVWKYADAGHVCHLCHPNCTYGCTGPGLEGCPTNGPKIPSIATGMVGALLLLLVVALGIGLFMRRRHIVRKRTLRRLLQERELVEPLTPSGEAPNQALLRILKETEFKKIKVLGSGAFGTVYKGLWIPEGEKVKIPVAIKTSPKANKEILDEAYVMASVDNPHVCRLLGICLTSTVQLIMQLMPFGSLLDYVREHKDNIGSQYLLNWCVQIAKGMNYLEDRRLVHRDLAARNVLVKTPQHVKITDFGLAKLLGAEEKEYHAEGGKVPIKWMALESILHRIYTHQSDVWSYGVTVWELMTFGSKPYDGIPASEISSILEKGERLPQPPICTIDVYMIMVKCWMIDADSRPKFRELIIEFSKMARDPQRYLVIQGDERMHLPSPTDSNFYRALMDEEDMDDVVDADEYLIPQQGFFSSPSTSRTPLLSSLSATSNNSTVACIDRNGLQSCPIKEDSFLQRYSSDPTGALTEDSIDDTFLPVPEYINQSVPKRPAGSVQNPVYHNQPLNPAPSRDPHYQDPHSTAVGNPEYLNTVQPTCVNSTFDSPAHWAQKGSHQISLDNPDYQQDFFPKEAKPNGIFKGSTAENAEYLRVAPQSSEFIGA
Procedure, shortened: as §1

[6] = molecular target: T6, various mutants of kinase EGFR (BaF3 cell lines stably transfected with kinase) (Homo sapiens, UniProt P00533, T790M, form not given)
T6 construct: other: BaF3 cells stably transfected with EGFR Δ19Del/T790M; MTS, 48 h; other: BaF3 cell line stably transfected with EGFR Δ19Del/T790M; MTS, 48
T6 sequence (P00533 with tags, fused parts or gaps DEL746-750/T790M, form open): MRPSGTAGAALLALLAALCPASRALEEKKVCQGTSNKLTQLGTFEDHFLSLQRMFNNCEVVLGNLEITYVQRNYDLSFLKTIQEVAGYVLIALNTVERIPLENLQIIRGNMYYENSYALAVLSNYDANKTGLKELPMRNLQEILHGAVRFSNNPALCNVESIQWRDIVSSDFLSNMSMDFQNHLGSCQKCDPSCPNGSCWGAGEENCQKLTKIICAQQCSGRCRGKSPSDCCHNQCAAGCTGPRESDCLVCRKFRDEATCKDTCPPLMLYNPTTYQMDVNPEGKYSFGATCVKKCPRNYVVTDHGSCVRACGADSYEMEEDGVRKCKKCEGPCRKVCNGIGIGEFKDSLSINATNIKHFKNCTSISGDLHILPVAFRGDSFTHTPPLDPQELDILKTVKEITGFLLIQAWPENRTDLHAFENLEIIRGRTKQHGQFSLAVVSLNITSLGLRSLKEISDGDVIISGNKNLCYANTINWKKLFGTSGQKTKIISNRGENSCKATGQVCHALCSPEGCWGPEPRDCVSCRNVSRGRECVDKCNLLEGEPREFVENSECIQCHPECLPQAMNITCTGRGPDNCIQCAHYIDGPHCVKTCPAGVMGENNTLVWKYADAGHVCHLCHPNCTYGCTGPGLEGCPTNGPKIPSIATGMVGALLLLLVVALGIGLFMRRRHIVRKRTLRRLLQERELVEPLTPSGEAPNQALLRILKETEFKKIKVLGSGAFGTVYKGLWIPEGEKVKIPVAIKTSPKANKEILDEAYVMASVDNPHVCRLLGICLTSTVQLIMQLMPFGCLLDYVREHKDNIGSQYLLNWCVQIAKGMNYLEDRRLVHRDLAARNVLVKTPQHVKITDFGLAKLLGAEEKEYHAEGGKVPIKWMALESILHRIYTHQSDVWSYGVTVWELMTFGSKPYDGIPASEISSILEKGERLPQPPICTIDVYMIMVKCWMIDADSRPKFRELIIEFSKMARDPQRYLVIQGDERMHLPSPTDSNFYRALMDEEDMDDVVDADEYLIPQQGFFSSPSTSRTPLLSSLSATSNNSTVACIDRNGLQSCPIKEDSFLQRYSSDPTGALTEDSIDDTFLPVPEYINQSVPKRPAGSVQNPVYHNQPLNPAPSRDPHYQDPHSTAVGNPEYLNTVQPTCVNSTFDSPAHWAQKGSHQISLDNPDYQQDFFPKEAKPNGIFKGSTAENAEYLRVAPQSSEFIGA
Procedure, shortened: as §1

[7] = BaF3 cells stably transfected with EGFR Δ19Del, read-out: IC50, growth inhibition, Δ19Del
[8] = BaF3 cells stably transfected with EGFR L858R/T790M/C797S, read-out: IC50, growth inhibition, L858R/T790M/C797S
[9] = BaF3 cells stably transfected with EGFR L858R, read-out: IC50, growth inhibition, L858R
[10] = BaF3 cells stably transfected with EGFR L858R/T790M, read-out: IC50, growth inhibition, L858R/T790M
[11] = BaF3 cells stably transfected with EGFR Δ19Del/T790M/C797S, read-out: IC50, growth inhibition, Δ19Del/T790M/C797S
[12] = BaF3 cells stably transfected with EGFR Δ19Del/T790M, read-out: IC50, growth inhibition, Δ19Del/T790M
[13] = BaF3 cell line stably transfected with EGFR Δ19Del, read-out: Δ19Del growth inhibitory activity IC50
[14] = BaF3 cell line stably transfected with EGFR L858R/T790M/C797S, read-out: L858R/T790M/ C797S growth inhibitory activity IC50
[15] = BaF3 cell line stably transfected with EGFR L858R, read-out: L858R growth inhibitory activity IC50
[16] = BaF3 cell line stably transfected with EGFR L858R/T790M, read-out: L858R/ T790M growth inhibitory activity IC50
[17] = BaF3 cell line stably transfected with EGFR Δ19Del/T790M/C797S, read-out: Δ19Del/T790M/ C797S growth inhibitory activity IC50
[18] = BaF3 cell line stably transfected with EGFR Δ19Del/T790M, read-out: Δ19Del/ T790M growth inhibitory activity IC50

Compound `C=Cc1cc(Nc2ncc(Cl)c(Nc3ccc4nccnc4c3N(C)S(=O)(=O)CC)n2)c(OC(F)(F)F)cc1N1CCC(N2CCN(C)CC2)CC1` [Compound I-295] has an IC50 [1, 7] of 50 to 500 nM, an IC50 [2, 8] of 50 to 500 nM and an IC50 [3, 9] of 50 to 500 nM. The IC50 [4, 10] was 50 to 500 nM, the IC50 [5, 11] was ≤ 50 nM and the IC50 [6, 12] was 50 to 500 nM.

`CCN(c1c(Nc2nc(Nc3ccc(N4CCC(N5CCN(C)CC5)CC4)nc3OC)ncc2Br)ccc2nccnc12)S(C)(=O)=O` [Compound I-296] showed an IC50 [1, 7] of 50 to 500 nM, an IC50 [2, 8] of 50 to 500 nM and an IC50 [3, 9] of 50 to 500 nM. It also gave an IC50 [4, 10] of 50 to 500 nM, an IC50 [5, 11] of 500 to 2500 nM and an IC50 [6, 12] of 50 to 500 nM.

In the case of `CCN(c1c(Nc2nc(Nc3cc(C)c(N4CCC(N5CCN(C)CC5)CC4)nc3OC)ncc2Br)ccc2nccnc12)S(C)(=O)=O` [Compound I-297], the IC50 [1, 7] is reported as 500 to 2500 nM, the IC50 [2, 8] is reported as 500 to 2500 nM and the IC50 [3, 9] is reported as 50 to 500 nM. The IC50 [4, 10] was 50 to 500 nM, the IC50 [5, 11] was 500 to 2500 nM and the IC50 [6, 12] was 50 to 500 nM.

For `C=Cc1cc(Nc2ncc(Br)c(Nc3ccc4nccnc4c3N(CC)S(C)(=O)=O)n2)c(OC(F)(F)F)cc1N1CCC(N2CCN(C)CC2)CC1` [Compound I-298], the IC50 [1, 7] was 50 to 500 nM, the IC50 [2, 8] was ≤ 50 nM and the IC50 [3, 9] was 50 to 500 nM. The IC50 [4, 10] was 50 to 500 nM, the IC50 [5, 11] was ≤ 50 nM and the IC50 [6, 12] was ≤ 50 nM.

With `CCN(c1c(Nc2nc(Nc3cc(C)c(N4CCC(N(C)C)CC4)cc3OC)ncc2Br)ccc2nccnc12)S(C)(=O)=O` [Compound I-299] the IC50 [1, 7] was ≤ 50 nM, the IC50 [2, 8] was ≤ 50 nM and the IC50 [3, 9] was 50 to 500 nM. For the same compound, the IC50 [4, 10] was ≤ 50 nM, the IC50 [5, 11] was ≤ 50 nM and the IC50 [6, 12] was ≤ 50 nM.

With `CCN(c1c(Nc2nc(Nc3cc(C)c(N4CCN(C)CC4)cc3OC)ncc2Br)ccc2nccnc12)S(C)(=O)=O` [Compound I-300] the IC50 [1, 7] was 50 to 500 nM, the IC50 [2, 8] was ≤ 50 nM and the IC50 [3, 9] was 50 to 500 nM. For the same compound, the IC50 [4, 10] was ≤ 50 nM, the IC50 [5, 11] was ≤ 50 nM and the IC50 [6, 12] was 50 to 500 nM.

In the case of `CCc1cc(Nc2ncc(Br)c(Nc3ccc4nccnc4c3N(CC)S(C)(=O)=O)n2)c(OC)cc1N1CCN(C)CC1` [Compound I-301], the IC50 [1, 7] is reported as 50 to 500 nM, the IC50 [2, 8] is reported as ≤ 50 nM and the IC50 [3, 9] is reported as ≤ 50 nM. For the same compound, the IC50 [4, 10] was ≤ 50 nM, the IC50 [5, 11] was ≤ 50 nM and the IC50 [6, 12] was ≤ 50 nM.

`CCN(c1c(Nc2nc(Nc3cc(C)c(N4CCC(N(C)C)C4)cc3OC)ncc2Br)ccc2nccnc12)S(C)(=O)=O` (stereo not drawn) [Compound I-302] was tested, and the IC50 [1, 7] was 50 to 500 nM, the IC50 [2, 8] was ≤ 50 nM and the IC50 [3, 9] was 50 to 500 nM. The IC50 [4, 10] was ≤ 50 nM, the IC50 [5, 11] was 50 to 500 nM and the IC50 [6, 12] was ≤ 50 nM.

With `COc1cc(N2CCC(N3CCN(C)CC3)CC2)ccc1Nc1ncc(Cl)c(Nc2ccc3nccnc3c2N(C2CC2)S(C)(=O)=O)n1` [Compound I-303] the IC50 [1, 13] was 50 to 500 nM, the IC50 [2, 14] was ≤ 50 nM and the IC50 [3, 15] was 50 to 500 nM. For the same compound, the IC50 [4, 16] was 50 to 500 nM, the IC50 [5, 17] was ≤ 50 nM and the IC50 [6, 18] was 50 to 500 nM.

In the case of `C=Cc1cc(Nc2ncc(Cl)c(Nc3ccc4nccnc4c3N(C3CC3)S(C)(=O)=O)n2)c(OC(F)(F)F)cc1N1CCC(N2CCN(C)CC2)CC1` [Compound I-304], the IC50 [1, 13] is reported as 50 to 500 nM, the IC50 [2, 14] is reported as 50 to 500 nM and the IC50 [3, 15] is reported as 50 to 500 nM. The IC50 [4, 16] was ≤ 50 nM, the IC50 [5, 17] was 50 to 500 nM and the IC50 [6, 18] was ≤ 50 nM.

`COc1nc(N2CCC(N3CCN(C)CC3)CC2)ccc1Nc1ncc(Br)c(Nc2ccc3nccnc3c2N(C2CC2)S(C)(=O)=O)n1` [Compound I-305] gave an IC50 [1, 13] of 50 to 500 nM, an IC50 [2, 14] of 50 to 500 nM and an IC50 [3, 15] of 50 to 500 nM. The IC50 [4, 16] was ≤ 50 nM, the IC50 [5, 17] was 50 to 500 nM and the IC50 [6, 18] was 50 to 500 nM.

Work on `COc1nc(N2CCC(N3CCN(C)CC3)CC2)c(C)cc1Nc1ncc(Br)c(Nc2ccc3nccnc3c2N(C2CC2)S(C)(=O)=O)n1` [Compound I-306] yielded an IC50 [1, 13] of 500 to 2500 nM, an IC50 [2, 14] of 500 to 2500 nM and an IC50 [3, 15] of 50 to 500 nM. It also gave an IC50 [4, 16] of 50 to 500 nM, an IC50 [5, 17] of 500 to 2500 nM and an IC50 [6, 18] of 50 to 500 nM.

`C=Cc1cc(Nc2ncc(Br)c(Nc3ccc4nccnc4c3N(C3CC3)S(C)(=O)=O)n2)c(OC(F)(F)F)cc1N1CCC(N2CCN(C)CC2)CC1` [Compound I-307] showed an IC50 [1, 13] of 500 to 2500 nM, an IC50 [2, 14] of 50 to 500 nM and an IC50 [3, 15] of 500 to 2500 nM. For the same compound, the IC50 [4, 16] was 50 to 500 nM, the IC50 [5, 17] was 50 to 500 nM and the IC50 [6, 18] was 50 to 500 nM.
